In PubChem BioAssay AID2060506 (Molecular Pharmacology Branch, DTP, NCI, 2025):
Where “and” joins values, the source holds several entries; their conditions need not be identical. Equal entries are not always repeated.

System: 598228-144-R-J1-PDC complex spheroid viability
Assay: Anticancer human tumor 598228-144-R-J1-PDC patient-derived serous endometrial adenocarcinoma cell line growth inhibition [GQUAD]
Settings: for viability, T/C: stronger effect = lower value
Text: DNA G-quadruplex Stabilizer Agents in Combinations in Complex Spheroids
A high-throughput screen of multi-cell type tumor spheroids was designed to identify active combinations of DNA G-quadruplex stabilizer agents and targeted small molecules. Complex spheroids include a stromal component modeled by human endothelial cells (HUVEC) and fibroblasts modeled by human mesenchymal stem cells (MSCs). The concentration ranges selected for each drug and investigational agent were based upon clinically achievable concentrations if the clinical Cmax of the agent was known.
Compounds. The drugs and investigational agents: pidnarulex (CX-5461; NSC782164), APTO-253 (NSC789042), BRACO-19 (NSC847499), peposertib (NSC802822), ceralasertib (NSC780249), elimusertib (NSC800525), camonsertib (NSC841442), AZD-1390 (NSC803789), olaparib (NSC753686), talazoparib (NSC767125), ART-558 (NSC835418), sotorasib (NSC818433), MRTX-1133 (NSC836407), SN-38 (NSC673596), topotecan (NSC609699), etoposide (NSC141540), doxorubicin (NSC123127), gemcitabine (NSC613327), 5-fluorouracil (NSC19893), paclitaxel (NSC125973), vemurafenib (NSC761431), panobinostat (NSC761190), R-306465 (JNJ-16241199; NSC773264), adavosertib (NSC754352), TP-3654 (NSC805149), carboplatin (NSC241240), KSQ-4279 (NSC840948), and staurosporine (NSC755774) were obtained from the National Cancer Institute (NCI) Developmental Therapeutics Program Chemical Repository (34). The FDA-approved anticancer drug set is available from the NCI Developmental Therapeutics Program. […] The stock solutions were prepared in dimethyl sulfoxide (DMSO, Sigma-Aldrich, St. Louis, MO, cat. D2650) at 800-fold the tested concentration and stored at -70 degrees C prior to their use. All drugs and investigational agents were tested over a range starting from a high concentration at or near the clinical Cmax and decreasing in half-log increments. If the clinical Cmax for an agent had not been determined, the highest concentration tested was 10 microM.
2.3 Cell Culture. All cells were maintained in an incubator at 37 degrees C and 5% CO2 with 95% humidity. The PDC lines were cultured according to standard operating procedures established by the NCI PDMR. All PDCs were thawed and cultured in Matrigel-coated flasks prepared with a working solution of 1X Ham's F-12 nutrient mix, without supplementation (Invitrogen, cat. 11765054), 100 U/mL penicillin-streptomycin (Invitrogen, cat. 15140122), and 2.5% Matrigel (Corning Inc., cat. 354248) for the first three passages. The 857933-349-R-J2-PDC line was cultured in 6C/Colon 1B media, which includes advanced DMEM/F-12 (Thermo Fisher Scientific, cat. 12634028), 10 mM HEPES (Thermo Fisher Scientific, cat. 15630080), 1X GlutaMAX supplement (Thermo Fisher Scientific, cat. 35050061), 0.1 mg/mL primocin (InvivoGen, cat. ant-pm-2), 10% defined fetal bovine serum, heat inactivated (HyClone Laboratories Inc., cat. SH30070.03HI), 50% L-WRN conditioned media (ATCC, cat. CRL-3276), 1.25 mM N-Acetyl-L-cysteine (Sigma-Aldrich, cat. A9165), 10 mM nicotinamide (Sigma-Aldrich, cat. N0636), 1X B-27 supplement (Thermo Fisher Scientific, cat. 17504044), 1X N-2 supplement (Thermo Fisher Scientific, cat. 17502048), 10 microM Y-27632 dihydrochloride (Tocris Bioscience, cat. 1254), and 50 ng/mL human EGF recombinant protein (Thermo Fisher Scientific, cat. PHG0311). The 485176-168-R4-J1-PDC line was cultured in Panc media, which includes all 6C/Colon 1B media components plus 100 ng/mL human FGF-10 (Thermo Fisher Scientific, cat. 100-26), 500 nM SB-431542 (Selleckchem, cat. S1067), and gastrin (Tocris, cat. 3006).
[…]
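Note: spheroids exposed to the agents for one week before reading.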
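Throughout, for viability, T/C: percent of vehicle DMSO control viability so 100% = untreated growth.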

## COc1cc(C2c3cc4c(cc3C(OC3OC5COC(C)OC5C(O)C3O)C3COC(=O)C23)OCO4)cc(OC)c1O (stereo not given)
Compound 0.0316 µM
  viability, T/C: 89.4% and 97.4% and 93.6%
Compound 0.1 µM
  viability, T/C: 96.5% and 82.4% and 72.5%
Compound 0.316 µM
  viability, T/C: 74.2% and 76.2% and 74.6%
Compound 1 µM
  viability, T/C: 78.1% and 70.3% and 58.1%
Compound 3.16 µM
  viability, T/C: 64.4% and 59.9% and 78.7%
Compound 10 µM
  viability, T/C: 48% and 46% and 36%
Curve of compound
  IC50: 9170 nM and 7570 nM and 6250 nM

## COc1ccc([C@@H](O)c2cc(-c3ncnc4cc(N5CCOCC5)ccc34)c(F)cc2Cl)nn1
Compound 0.0316 µM
  viability, T/C: 97.8% and 102% and 84.3%
Compound 0.1 µM
  viability, T/C: 90% and 101% and 85.3%
Compound 0.316 µM
  viability, T/C: 89.9% and 67.4% and 82.6%
Compound 1 µM
  viability, T/C: 74.7% and 62.1% and 82.8%
Compound 3.16 µM
  viability, T/C: 52.1% and 42.8% and 49.9%
Compound 10 µM
  viability, T/C: 32.1% and 30% and 30.5%
Curve of compound
  IC50: 3600 nM and 1800 nM and 3150 nM

## COc1cccc2c1C(=O)c1c(O)c3c(c(O)c1C2=O)CC(O)(C(=O)CO)CC3OC1CC(N)C(O)C(C)O1 (stereo not given)
Compound 0.0316 µM
  viability, T/C: 93.1% and 76% and 90.5%
Compound 0.1 µM
  viability, T/C: 76.3% and 67.8% and 76.2%
Compound 0.316 µM
  viability, T/C: 78.5% and 73.6% and 72.8%
Compound 1 µM
  viability, T/C: 41.3% and 36.2% and 49.6%
Compound 3.16 µM
  viability, T/C: 1.91% and 2.01% and 1.77%
Compound 10 µM
  viability, T/C: 0.43% and 0.5% and 0.55%
Curve of compound
  IC50: 755 nM and 646 nM and 915 nM

## COc1ncnc(C2CC2)c1-c1ncc2cnn(Cc3ccc(-c4nc(C(F)(F)F)cn4C(C)C)cc3)c2n1
Compound 0.0316 µM
  viability, T/C: 112% and 120% and 109%
Compound 0.1 µM
  viability, T/C: 99.5% and 93.3% and 79.8%
Compound 0.316 µM
  viability, T/C: 107% and 103% and 102%
Compound 1 µM
  viability, T/C: 106% and 104% and 102%
Compound 3.16 µM
  viability, T/C: 97.8% and 112% and 113%
Compound 10 µM
  viability, T/C: 105% and 117% and 89%
Curve of compound
  IC50: > 10000 nM

## Cc1[nH]c2ccc(F)cc2c1-c1nc2c3cccnc3c3ncccc3c2[nH]1
Compound 0.0316 µM
  viability, T/C: 99.3% [middle of 12 runs]
Compound 3.16 µM
  viability, T/C: 46.7% [middle of 12 runs]
Compound 10 µM
  viability, T/C: 68.5% [middle of 12 runs]
Compound alone, run of 03/18/2024
  IC50: > 10000 nM and 3620 nM
Compound alone, run of 03/26/2024
  IC50: > 10000 nM

## Cc1[nH]c2ccccc2c1CCNCc1ccc(/C=C/C(=O)NO)cc1
Compound 0.000999 µM
  viability, T/C: 109% and 102% and 101%
Compound 0.00316 µM
  viability, T/C: 97.9% and 99.4% and 93.7%
Compound 0.00999 µM
  viability, T/C: 108% and 97.5% and 99%
Compound 0.0316 µM
  viability, T/C: 83.5% and 70.5% and 71.7%
Compound 0.0999 µM
  viability, T/C: 27.5% and 29.3% and 38.2%
Compound 0.316 µM
  viability, T/C: 0.72% and 0.83% and 0.61%
Curve of compound
  IC50: 63.1 nM and 56.5 nM and 67.3 nM

## Cc1cccc(N(C)C(=O)C2C(O)CCN2c2nc(C)cc(C(F)(F)F)c2C#N)c1 (stereo not given)
Compound 0.0316 µM
  viability, T/C: 108% and 89.4% and 98.2%
Compound 0.1 µM
  viability, T/C: 92.7% and 78% and 99.4%
Compound 0.316 µM
  viability, T/C: 97.2% and 122% and 88.8%
Compound 1 µM
  viability, T/C: 99.8% and 91.5% and 99.9%
Compound 3.16 µM
  viability, T/C: 97.1% and 94.7% and 111%
Compound 10 µM
  viability, T/C: 93.6% and 88.1% and 102%
Curve of compound
  IC50: > 10000 nM

## Cc1cnc(CNC(=O)c2c(=O)c3ccc(N4CCCN(C)CC4)nc3n3c2sc2ccccc23)cn1
Compound 0.1 µM
  viability, T/C: 73.5% [middle of 12 runs]
Compound 1 µM
  viability, T/C: 65.9% [middle of 12 runs]
Compound 3.16 µM
  viability, T/C: 56.4% [middle of 12 runs]

## Cn1ncnc1[C@H]1c2n[nH]c(=O)c3cc(F)cc(c23)N[C@@H]1c1ccc(F)cc1
Compound 0.000999 µM
  viability, T/C: 102% and 87.8% and 113%
Compound 0.00316 µM
  viability, T/C: 108% and 103% and 91.4%
Compound 0.00999 µM
  viability, T/C: 73.5% and 93.9% and 92.7%
Compound 0.0316 µM
  viability, T/C: 101% and 75.7% and 85.6%
Compound 0.0999 µM
  viability, T/C: 90.7% and 71.7% and 88%
Compound 0.316 µM
  viability, T/C: 73.6% and 88.2% and 69.7%
Curve of compound
  IC50: > 316 nM

## Nc1ccn(C2OC(CO)C(O)C2(F)F)c(=O)n1 (stereo not given)
Compound 0.0316 µM
  viability, T/C: 44.7% and 45.7% and 52.1%
Compound 0.1 µM
  viability, T/C: 46.9% and 45.7% and 47.2%
Compound 0.316 µM
  viability, T/C: 49.2% and 45.3% and 41.9%
Compound 1 µM
  viability, T/C: 52% and 47.8% and 53%
Compound 3.16 µM
  viability, T/C: 40.2% and 36.2% and 38.9%
Compound 10 µM
  viability, T/C: 47.3% and 43.5% and 45.3%
Curve of compound
  IC50: < 31.6 nM

## O=C(NO)c1cnc(N2CCN(S(=O)(=O)c3ccc4ccccc4c3)CC2)nc1
Compound 0.0316 µM
  viability, T/C: 112% and 98.7% and 110%
Compound 0.1 µM
  viability, T/C: 49.4% and 40.7% and 59.1%
Compound 0.316 µM
  viability, T/C: 26.3% and 24.7% and 34%
Compound 1 µM
  viability, T/C: 0.49% and 0.43% and 0.75%
Compound 3.16 µM
  viability, T/C: 0.37% and 0.43% and 0.25%
Compound 10 µM
  viability, T/C: 0.35% and 0.28% and 0.23%
Curve of compound
  IC50: 106 nM and 88 nM and 148 nM

## O=C(c1cc(Cc2n[nH]c(=O)c3ccccc23)ccc1F)N1CCN(C(=O)C2CC2)CC1
Compound 0.0316 µM
  viability, T/C: 99.5% and 83.8% and 109%
Compound 0.1 µM
  viability, T/C: 96.3% and 85.6% and 96.4%
Compound 0.316 µM
  viability, T/C: 88.2% and 96.8% (2×)
Compound 1 µM
  viability, T/C: 118% and 79.3% and 98.2%
Compound 3.16 µM
  viability, T/C: 81% and 79.2% and 90.8%
Compound 10 µM
  viability, T/C: 74.8% and 64.3% and 66.1%
Curve of compound
  IC50: > 10000 nM

## O=c1[nH]cc(F)c(=O)[nH]1
Compound 0.0316 µM
  viability, T/C: 133% and 103% and 95.3%
Compound 0.1 µM
  viability, T/C: 97.8% and 107% and 117%
Compound 0.316 µM
  viability, T/C: 85.5% and 104% and 88.7%
Compound 1 µM
  viability, T/C: 105% and 96.9% and 91.4%
Compound 3.16 µM
  viability, T/C: 97% and 95.8% and 105%
Compound 10 µM
  viability, T/C: 86.7% and 77.5% and 79.2%
Curve of compound
  IC50: > 10000 nM
